Laboratory results reported in patent publication US20070232615A1, “Chemical Compounds” (priority 2004, published 2007).

Key:
Type in all cases: cell-based
HIV = test: HOS HIV infectivity assay (Table 2, strain not given); conditions: Human immunodeficiency virus 1, read-out: Activity Level
How it was run: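 HOS cells expressing hCXCR4/hCCR5/hCD4 and an HIV-LTR-luciferase reporter were preincubated with compound for 1 h in DMEM/2% FCS. They were then infected with HIV-1 Ba-L or IIIB (about 2 million RLU/well) for 96 h at 37° C. Infection was read by luciferase luminescence, and viability in uninfected cultures by CellTiter-Glo.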

HIV-1 IIIB = test: HOS HIV-1 infectivity assay, IIIB strain; conditions: Human immunodeficiency virus 1; HOS cells, HIV-1 IIIB (T-tropic, CXCR4 utilizing), 96 h; read-out: HOS (3B)
Procedure: HOS HIV-1 Infectivity Assay
(§1) Compounds were profiled against two HIV-1 viruses, the M-tropic (CCR5 utilizing) Ba-L strain and the T-tropic (CXCR4 utilizing) IIIB strain. Both viruses were propagated in human peripheral blood lymphocytes. Compounds were tested for there ability to block infection of the HOS cell line (expressing hCXCR4/hCCR5/hCD4/pHIV-LTR-luciferase) by either HIV-1 Ba-L or HIV-1 IIIB. Compound cytotoxicity was also examined in the absence of virus addition.
HOS HIV-1 Infectivity Assay Format
(§2) HOS cells (expressing hCXCR4/hCCR5/hCD4/pHIV-LTR-luciferase) were harvested and diluted in Dulbeccos modified Eagles media supplemented with 2% FCS and non-essential amino acid to a concentration of 60,000 cells/ml. The cells were plated into 96-well plates (100 ul per well) and the plates were placed in a tissue culture incubator (37° C.; 5% CO2/95% air) for a period of 24 h.
(§3) Subsequently, 50 ul of the desired drug solution (4 times the final concentration) was added to each well and the plates were returned to the tissue culture incubator (37° C.; 5% CO2/95% air) for 1 h. Following this incubation 50 ul of diluted virus was added to each well (approximately 2 million RLU per well of virus). The plates were returned to the tissue culture incubator (37° C.; 5% CO2/95% air) and were incubated for a further 96 h.
(§4) Following this incubation the endpoint for the virally infected cultures was quantified following addition of Steady-Glo Luciferase assay system reagent (Promega, Madison, Wis.). Cell viability or non-infected cultures was measured using a CellTiter-Glo luminescent cell viability assay system (Promega, Madison, Wis.). All luminescent readouts are performed on a Topcount luminescence detector (Packard, Meridien, Conn.).

[1] = Compound cytotoxicity in the absence of virus (CellTiter-Glo); conditions: human; HOS cells, no virus; read-out: Cytotox (pIC50) (converted)
Procedure: as §1, §2, §3, §4

[2] = tested on: HOS (hCXCR4/hCCR5/hCD4/pHIV-LTR-luciferase) cells and HEK-293 cells expressing HIV-1 gp160 (HXB2 strain); test: Cell/cell fusion assay (luciferase); conditions: Homo sapiens, HEK293; 24 h, luciferase readout; read-out: Fusion assay (pIC50) (converted)
Text: The complete coding sequences of HIV-1 tat (GenBank Accession No. X07861) and rev (GenBank Accession No. M34378) were cloned into pcDNA3.1 expression vectors containing G418 and hygromycin resistance genes, respectively. The complete coding sequence of the HIV-1 (HXB2 strain) gp160 envelope gene (nucleotide bases 6225-8795 of GenBank Accession No. K03455) was cloned into plasmid pCRII-TOPO. The three HIV genes were additionally inserted into the baculovirus shuttle vector, pFastBacMam1, under the transcriptional control of the CMV promoter. A construction of the pHIV-I LTR containing mutated NFkB sequences linked to the luciferase reporter gene was prepared by digesting pcDNA3.1, containing the G418 resistance gene, with Nru I and Bam HI to remove the CMV promoter. LTR-luc was then cloned into the Nru I/Bam HI sites of the plasmid vector. Plasmid preparations were performed after the plasmids were amplified in Escherichia coli strain DH5-alpha. The fidelity of the inserted sequences was confirmed by double-strand nucleotide sequencing using an ABI Prism Model 377 automated sequencer.
BacMam Baculovirus Generation
Recombinant BacMam baculoviruses were constructed from pFastBacMam shuttle plasmids by using the bacterial cell-based Bac-to-Bac system. Viruses were propagated in Sf9 (Spodoptera frugiperda) cells cultured in Hink's TNM-FH Insect media supplemented with 10% (v/v) fetal bovine serum and 0.1% (v/v) pluronic F-68 according to established protocols.
Human osteosarcoma (HOS) cells that naturally express human CXCR4 were transfected with human CCR5, human CD4 and the pHIV-LTR-luciferase plasmid using FuGENE 6 transfection reagent. Single cells were isolated and grown under selection condition in order to generate a stable HOS (hCXCR4/hCCR5/hCD4/pHIV-LTR-luciferase) clonal cell line. The cells were maintained in Dulbeccos modified Eagles media supplemented with 10% fetal calf serum (FCS), G418 (400 ug/ml), puromycin (1 ug/ml), mycophenolic acid (40 ug/ml), xanthine (250 ug/ml) and hypoxanthine (13.5 ug/ml) to maintain a selection pressure for cells expressing the LTR-luciferase, hCCR5 and hCD4, respectively. Human embryonic kidney (HEK-293) cells stably transfected to express the human macrophage scavenging receptor (Class A, type 1; GenBank Accession No. D90187), were maintained in DMEM/F-12 media (1:1) supplemented with 10% FCS and 1.5 ug/ml puromycin. The expression of this receptor by the HEK-293 cells enhances their ability to stick to tissue culture treated plasticware.
Transduction of HEK-293 cells
HEK-293 cells were harvested using enzyme-free cell dissociation buffer. The cells were resuspended in DMEM/F-12 media supplemented with 10% FCS and 1.5 ug/ml and counted. Tranductions were performed by direct addition of BacMam baculovirus containing insect cell media to cells. The cells were simultaneously transduced with BacMam baculovirus expressing HIV-1 tat, HIV-1 rev and HIV-1 gp160 (from the HXB2 HIV strain). Routinely an MOI of 10 of each virus was added to the media containing the cells. 2 mM butyric acid was also added to the cells at this stage to increase protein expression in transduced cells. The cells were subsequently mixed and seeded into a flask at 30 million cells per T225. The cells were incubated at 37° C., 5% CO2, 95% humidity for 24 h to allow for protein expression.
Cell/Cell Fusion Assay Format
HEK and HOS cells were harvested in DMEM/F-12 media containing 2% FCS and DMEM media containing 2% FCS, respectively, with no selection agents added. Compounds were plated as 1 ul spots in 100% DMSO on a 96-well CulturPlate plates. HOS cells (50 ul) were added first to the wells, followed immediately by the HEK cells (50 ul). The final concentration of each cell type was 20,000 cells per well. Following these additions, the cells were returned to a tissue culture incubator (37° C.; 5% CO2/95% air) for an additional 24 h.
Measurement of Luciferase Production […]

human CXCR4 = target: T1, human CXCR4 (Homo sapiens, UniProt P61073); test: Functional FLIPR assay (block of SDF-1 alpha induced [Ca2+]i change); conditions: HEK-293 cells with human CXCR4 and Gqi5 BacMam; antagonism of SDF-1 alpha; read-out: Functional assay (pIC50) (converted)
T1 construct: expressed in transfected cells; host or cells: HEK-293 cells (stably expressing human macrophage scavenger receptor class A type 1), transduced with human CXCR4 BacMam and Gqi5 BacMam baculoviruses
T1 sequence (P61073 whole entry): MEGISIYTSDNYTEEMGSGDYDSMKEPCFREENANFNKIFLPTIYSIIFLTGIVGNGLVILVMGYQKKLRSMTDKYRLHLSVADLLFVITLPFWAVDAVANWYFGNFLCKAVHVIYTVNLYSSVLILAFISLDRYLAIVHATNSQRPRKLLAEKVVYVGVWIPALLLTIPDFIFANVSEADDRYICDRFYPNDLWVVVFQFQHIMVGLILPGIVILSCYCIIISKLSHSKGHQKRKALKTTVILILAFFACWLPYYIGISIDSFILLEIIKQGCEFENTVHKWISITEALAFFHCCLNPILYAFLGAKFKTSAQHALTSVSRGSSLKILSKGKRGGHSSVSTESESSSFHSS
Procedure: Human embryonic kidney (HEK-293) cells were maintained and harvested as described above. Cells were plated in 96-well, black clear bottom, poly-lysine coated plates at a concentration of 40,000 cells per well in a final volume of 100 ul containing human CXCR4 BacMam (MOI=25) and Gqi5 BacMam (MOI=12.5). The cells were incubated at 37° C., 5% CO2, 95% humidity for 24 h to allow for protein expression.
After the required incubation time the cells were washed once with 50 ul of fresh serum-free DMEM/F12 media containing probenicid. 50 ul of dye solution was then added to the cells (Calcium Plus Assay Kit Dye; Molecular Devices) was dissolved in 200 ml of the above probenicid/BSA containing media and incubated for 1 h. Cell plates were transferred to a Fluorometric Imaging Plate Reader (FLIPR). Upon addition the effect of the compounds on the change in [Ca^2+]i was examined to determine if the compounds were agonists or antagonists (ability to block SDF-1 alpha activity) at the CXCR4 receptor. IC50 values are determined and pKb values are calculated using the Leff and Dougall equation: KB=IC50/((2+([agonist]/EC50ˆb)ˆ1/b−1) Where IC50 is that defined by the antagonist concentration-response curve [agonist] is the EC80 concentration of agonist used EC50 is that defined by the agonist concentration-response curve b is the slope of the agonist concentration-response curve.

| SMILES | IC50 (HIV) [nM] | IC50 (HIV-1 IIIB) [nM] | IC50 at 96 h [1] [nM] | IC50 [2] [nM] | IC50 (human CXCR4) [nM] |
| --- | --- | --- | --- | --- | --- |
| CC(C)N1CCN(c2cccc3nc(CN(C)C4CCCc5cccnc54)cn23)CC1 (stereo not drawn) [Example 8, N-Methyl-N-({5-[4-(1-methylethyl)-1-piperazinyl]imidazo[1,2-a]pyridin-2-yl}methyl)-5,6,7,8-tetrahydro-8-quinolinamine] | < 100 | 16 | > 100000 | 22.4 | 9.77 |
| CN1CCN(c2cccc3nc(CN(C)C4CCCc5cccnc54)cn23)CC1 (stereo not drawn) [Example 6, N-Methyl-N-{[5-(4-methyl-1-piperazinyl)imidazo[1,2-a]pyridin-2-yl]methyl}-5,6,7,8-tetrahydro-8-quinolinamine] | < 100 | 6.3 | > 100000 | 3.31 | 7.94 |
| CN(C)CCN(C)c1cccc2nc(CN(C)C3CCCc4cccnc43)cn12 (stereo not drawn) [Example 11, N,N,N′-Trimethyl-N′-(2-{[methyl(5,6,7,8-tetrahydro-8-quinolinyl)amino]methyl}imidazo[1,2-a]pyridin-5-yl)-1,2-ethanediamine] | < 100 | 32 | > 100000 | 67.6 | 33.9 |
| CC(C)N(Cc1cn2c(N3CCN(C)CC3)cccc2n1)C1CCCc2cccnc21 (stereo not drawn) [Example 14, N-(1-Methylethyl)-N-{[5-(4-methyl-1-piperazinyl)imidazo[1,2-a]pyridin-2-yl]methyl}-5,6,7,8-tetrahydro-8-quinolinamine] | < 100 | 13 | > 100000 | 21.9 | 2 |
| CC(C)N1CCN(c2cccc3nc(CN(C(C)C)C4CCCc5cccnc54)cn23)CC1 (stereo not drawn) [Example 15, N-(1-Methylethyl)-N-({5-[4-(1-methylethyl)-1-piperazinyl]imidazo[1,2-a]pyridin-2-yl}methyl)-5,6,7,8-tetrahydro-8-quinolinamine] | < 100 | 38 | > 100000 | 79.4 | 3.63 |
| CN(Cc1cn2c(N3CCNCC3)cccc2n1)C1CCCc2cccnc21 (stereo not drawn) [Example 10, N-Methyl-N-{[5-(1-piperazinyl)imidazo[1,2-a]pyridin-2-yl]methyl}-5,6,7,8-tetrahydro-8-quinolinamine] | < 100 | 20 | > 100000 | 17.8 | 6.92 |
| CN(Cc1cn2c(-c3ccncc3)cccc2n1)C1CCCc2cccnc21 (stereo not drawn) [Example 19, N-Methyl-N-{[5-(4-pyridinyl)imidazo[1,2-a]pyridin-2-yl]methyl}-5,6,7,8-tetrahydro-8-quinolinamine] | 100 to 500 | 280 | > 100000 | 3160 | 20.4 |
| CN1CCN(c2cccc3nc(CN(CC(F)(F)F)C4CCCc5cccnc54)cn23)CC1 (stereo not drawn) [Example 16, N-{[5-(4-Methyl-1-piperazinyl)imidazo[1,2-a]pyridin-2-yl]methyl}-N-(2,2,2-trifluoroethyl)-5,6,7,8-tetrahydro-8-quinolinamine] | 100 to 500 | 145 | > 100000 | 417 | 4.37 |
| CN(Cc1cn2c(N3CCN(C(=O)OC(C)(C)C)CC3)cccc2n1)C1CCCc2cccnc21 (stereo not drawn) [Example 9, 1,1-Dimethylethyl 4-(2-{[methyl(5,6,7,8-tetrahydro-8-quinolinyl)amino]methyl}imidazo[1,2-a]pyridin-5-yl)-1-piperazinecarboxylate] |  | 300 | > 100000 | 912 | 363 |
| CCN1CCN(c2cccc3nc(CN(C)C4CCCc5cccnc54)cn23)CC1 (stereo not drawn) [Example 7, N-{[5-(4-Ethyl-1-piperazinyl)imidazo[1,2-a]pyridin-2-yl]methyl}-N-methyl-5,6,7,8-tetrahydro-8-quinolinamine] | < 100 | 11 | > 100000 | 11.2 | 6.92 |
| CC1CN(c2cccc3nc(CN(C)C4CCCc5cccnc54)cn23)CC(C)N1C (stereo not drawn) [Example 13, N-Methyl-N-{[5-(3,4,5-trimethyl-1-piperazinyl)imidazo[1,2-a]pyridin-2-yl]methyl}-5,6,7,8-tetrahydro-8-quinolinamine] | < 100 | 62 | > 100000 | 77.6 | 18.2 |
